The source of these data is US20110136768A1 (THE GENERAL HOSPITAL CORPORATION, priority 2008, published 2011).

Series [1] deals with patients with NSF. Kind of series: Skin involvement by modified Rodnan skin score (mRSS) in treated NSF patients. Type of series: in vivo, human. The protocol: (§1) Two patients diagnosed with NSF that was associated with gadolinium exposure were assessed and treated with orally administered imatinib mesylate over an extended period of time. Their progress was assessed as were any side effects of the treatment.
They were offered treatment with imatinib mesylate. […] Shortly thereafter, […] PD catheter stopped functioning and they began to undergo HD.
To determine whether a higher dose of IM might yield further improvement in their skin changes, their daily dose was increased from 400 mg to 600 mg at the end of January 2007. Because of a hospitalization in February 2007, for evaluation and treatment of chronic gastrointestinal bleeding, they stopped taking IM for 2 weeks. They resumed taking daily oral IM 600 mg, one week later, but they again stopped taking it after 6 days, when they underwent elective surgical repair of an abdominal hernia. They once again resumed taking oral IM 400 mg daily in May 2007. However, because of difficulty controlling their INR, they discontinued IM two weeks later. Off of IM, their Coumadin anticoagulation has been managed more easily.
Skin involvement was assessed using the modified version of the Rodnan skin score (mRSS). The same examiner evaluated each patient at each visit. Seventeen skin sites were evaluated: the face, upper arms, […], dorsum of the hands, fingers, chest, abdomen, thighs, […], and feet. Each site was graded: 0=normal skin, 1=thickened skin, 2=thickened and unable to pinch, or 3=thickened and unable to move. The maximum total score is 51.

In series [2] the test system is patients with NSF. Description: Skin biopsy histology before and after IM (hematoxylin & eosin, type I procollagen staining). The series is classed as in vivo, human. From the text: FIG. 2 (A and B) are photographs of skin biopsies from Patient 1 before (FIG. 2A) and after 15 weeks (FIG. 2B) of treatment with IM, at similar magnification and under equivalent lighting. […] (hematoxylin & eosin staining, 12.5× total magnification). The grey line in each panel identifies the level of the eccrine ducts, structures that occur at a relatively uniform depth in a particular region of the body.
FIG. 3 (A and B) are photographs of skin biopsies from Patient 1 before (FIG. 3A) and after 15 weeks (FIG. 3B) of treatment with IM, at similar magnification and under equivalent lighting. […] (type I procollagen immunohistochemical staining, 12.5× magnification) The grey line in each panel identifies the level of the eccrine ducts.
Skin biopsies performed both before and after initial dosing of Patient 1 with IM were compared. Both specimens were obtained from the same anatomic area, with the second biopsy taken immediately adjacent to the resolved scar from the prior procedure, but each biopsy had been performed using different technique (The first biopsy was an excisional biopsy, the second was a punch biopsy). […] Furthermore, in the specimen obtained after IM treatment, fewer type I procollagen^+ cells were present in the upper dermis (FIG. 3B). The second biopsy contained 124 ppm (μg/g, dry weight) of gadolinium, essentially unchanged from that of the pretreatment biopsy (High et al.: Gadolinium is quantifiable within the tissue of patients with nephrogenic systemic fibrosis, J Am Acad Dermatol 2007).

The test system of series [3] is patients with NSF. Description: Adverse effects in the two treated NSF patients. The series is classed as in vivo, human. Particulars: both patients. The protocol: as §1
Patient 1 developed gastrointestinal upset that resolved when corticosteroid replacement with 7.5 mg/day oral prednisone was initiated to treat adrenal insufficiency 17 weeks after re-initiation of IM, despite continuation of IM.

In series [4] the test system is patients with NSF. Description: Knee joint flexion contracture measured with a goniometer in treated NSF patients. Type of series: in vivo, human. The method, then: as §1
Loss of knee joint extension (flexion contracture) was assessed by measuring maximal passive knee extension, with the patient in a supine position, using a goniometer. The center of the goniometer was placed at the lateral femoral condyle, with the proximal arm positioned along the longitudinal axis of the femur and the distal arm aligned with the long axis of the tibia. Measurements were rounded to the nearest multiple of 5 degrees. Although flexion contractures appeared symmetric in both patients, the knee with the greater flexion contracture at baseline was assessed for change at subsequent visit.

Series [5] deals with patients with NSF. Particulars: two patients; cited from earlier work.

Structures are written as SMILES. Where a name gives a salt, the structure may show the parent alone.

With `Cc1ccc(NC(=O)c2ccc(CN3CCN(C)CC3)cc2)cc1Nc1nccc(-c2cccnc2)n1` [imatinib mesylate], the mRSS worked out at 16 with patients with NSF [1] (Patient 1, after oral IM 400 mg daily over 15 weeks); 33 in the series on patients with NSF [1] (Patient 1, after subsequent 9 weeks without IM); 42 in the series on patients with NSF [1] (Patient 1, baseline before oral IM 400 mg daily, maximum total score 51); 10 with patients with NSF [1] (Patient 1, within 5 weeks of resuming oral IM 400 mg daily (from 33)); 12 with patients with NSF [1] (Patient 2, baseline before oral IM 400 mg daily); 2 in the series with patients with NSF [1] (Patient 2, while taking oral IM 400 mg daily). This compound also gave a mRSS in the series on patients with NSF [1] (Patient 2, within 5 weeks of stopping IM) of 15. Further, the “staining for type I procollagen in skin biopsy” value in the series on patients with NSF [2] (Patient 1, after 15 weeks of IM versus before) was “less staining for type I procollagen”. Besides, in the series on patients with NSF [2] (Patient 1, after 15 weeks of IM versus before, hematoxylin & eosin), the “fibrosis in skin biopsy” value is listed as “less fibrosis”. The “type I procollagen+ cells in the upper dermis” value in the series on patients with NSF [2] (Patient 1, after IM treatment versus before) is given as “fewer”. Besides, in the series with patients with NSF [3], the congestive heart failure result was “Neither patient developed congestive heart failure”. For the same compound, in the series with patients with NSF [3] (corrected by dialysis treatment), the “adverse effect related to IM” value is listed as “fluid retention”. Moreover, the “knee joint flexion contractures” value is 25 ° in the series on patients with NSF [4] (Patient 1, off IM for 9 weeks, both knees); 25 ° with patients with NSF [4] (Patient 1, week 6 of IM, with physical therapy); 10 ° in the series on patients with NSF [4] (Patient 1, week 15 of IM, with physical therapy); “knee joint flexion contractures developed that gradually progressed over time” in the series on patients with NSF [4] (Patient 2, after discontinuing IM, none when they began IM).
For the compound `CC(=O)CCCCn1c(=O)c2c(ncn2C)n(C)c1=O` [pentoxyphyline], in the series with patients with NSF [5], the “skin thickening and joint mobility” value is “Decreased skin thickening and improved joint mobility”.
